# Measurements as given in PubChem BioAssay AID400 (SGCOxCompounds, 2006).
# Target: Tyrosine-protein phosphatase non-receptor type 5 (Homo sapiens) (UniProt P54829)
# Test: inhibition of STEP tyrosine phosphatase activity – biochemical, human, DiFMUP fluorescence (AID 400)
# Details: recombinant PTPN5, DiFMUP fluorescence phosphatase assay; at 50 µM; enzyme 6.5 ng/mL; DTT 5 mM; hits give high values
# Chain of Tyrosine-protein phosphatase non-receptor type 5 (Homo sapiens) (P54829 whole entry, looked up): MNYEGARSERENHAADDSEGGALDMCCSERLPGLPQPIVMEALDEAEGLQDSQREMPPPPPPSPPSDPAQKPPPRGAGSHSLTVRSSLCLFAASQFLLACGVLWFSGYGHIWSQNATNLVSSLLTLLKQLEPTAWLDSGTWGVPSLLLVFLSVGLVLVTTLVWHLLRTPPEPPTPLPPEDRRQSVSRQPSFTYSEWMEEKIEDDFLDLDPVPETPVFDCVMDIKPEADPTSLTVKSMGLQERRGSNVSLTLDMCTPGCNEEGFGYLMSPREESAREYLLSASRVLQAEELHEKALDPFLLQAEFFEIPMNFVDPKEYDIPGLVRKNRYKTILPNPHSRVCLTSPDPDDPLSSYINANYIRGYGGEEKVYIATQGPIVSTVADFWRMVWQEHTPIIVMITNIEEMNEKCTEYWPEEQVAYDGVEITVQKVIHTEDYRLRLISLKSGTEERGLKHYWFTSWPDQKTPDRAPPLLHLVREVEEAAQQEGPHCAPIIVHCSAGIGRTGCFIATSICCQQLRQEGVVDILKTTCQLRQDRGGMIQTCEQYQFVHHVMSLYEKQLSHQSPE
row,inhibition,Structure (SMILES)
1,75.5%,NC1=NC(=O)/C(=C/C=C/c2ccc([N+](=O)[O-])o2)S1
2,7%,CC1(C)OC(=O)C(=Cc2ccc(Br)o2)C(=O)O1
3,46%,CC(=O)c1ccc2c(c1)C1C=CCC1C(C(=O)O)N2 (stereo not given)
4,17%,O=C(O)C1Nc2c(O)cccc2C2C=CCC12 (stereo not given)
5,33%,Oc1c(Cl)c(Cl)c(O)c2nsnc12
6,88%,O=C1NC(=S)S/C1=C\C=C\c1ccc([N+](=O)[O-])o1

row,Structure (SMILES),inhibition
1,COc1cc[n+](C(=O)N(C)C)cc1,14%

# Same assay, conditions: recombinant PTPN5, DiFMUP fluorescence phosphatase assay; at 50 µM; enzyme 20 ng/mL; DTT 1 mM; hits give high values
row,Structure (SMILES),inhibition
1,Cn1nc(-c2ccccc2)nc2c(=O)n(C)c(=O)nc1-2,95%

# Same assay, conditions: recombinant PTPN5, DiFMUP fluorescence phosphatase assay; at 50 µM; enzyme 87 ng/mL; DTT 5 mM; hits give high values
row,inhibition,Structure (SMILES)
1,38%,O=C(O)c1ccc(O)c(C=Nc2cccc(-c3nc4ccccc4o3)c2)c1
2,70%,O=C(O)c1ccc(O)c(C=Nc2ccc3oc(-c4ccc(F)cc4Cl)nc3c2)c1
3,91%,F
4,43%,O=C(O)c1ccc(O)c(/C=N/N(CCO)C2=NS(=O)(=O)c3ccccc32)c1
5,83%,COc1ccc(-c2nc3cc(N=Cc4cc(C(=O)O)ccc4O)ccc3o2)cc1
6,30%,CC(C)(C)NC(=O)CCN(/N=C/c1cc(C(=O)O)ccc1O)C1=NS(=O)(=O)c2ccccc21
7,90%,O=C([O-])c1ccccn1.OO.OO.[K+].[K+].[O]=[V]
8,53%,Cc1ccc2nc(-c3cc(N=Cc4cc(C(=O)O)ccc4O)ccc3O)[nH]c2c1
9,90%,O=C(O)c1ccc([O-])cn1.OO.OO.[K+].[K+].[O]=[V]
10,33%,O=C(O)c1ccc(O)c(C=Nc2ccc3oc(-c4cccc(Cl)c4Cl)nc3c2)c1
11,63%,O=C(O)c1ccc(O)cn1.OO.[O]=[V]
12,67%,OO.OO.[K+].[O]=[V].c1ccc(-c2ccccn2)nc1
13,29%,CC(C)C(=O)Nc1ccc(O)cc1C(=O)O
14,33%,COc1ccccc1C(=O)Nc1ccc(O)cc1C(=O)O
15,72%,OO.OO.[K+].[O]=[V].c1cnc2c(c1)ccc1cccnc12

# Same assay, conditions: recombinant PTPN5, DiFMUP fluorescence phosphatase assay; dose 33 (unit in doubt); enzyme 28.9 ng/mL; DTT 1 mM; hits give high values
row,inhibition,Structure (SMILES)
1,43%,[NH-]CO.[NH-]CO.[NH-]CO.[NH-]CO.[O]=[V][O][V]=[O]

# Same assay, conditions: recombinant PTPN5, DiFMUP fluorescence phosphatase assay; dose 200 (unit in doubt); enzyme 20 ng/mL; DTT 1 mM; hits give high values
row,inhibition,Structure (SMILES)
1,54%,CCn1nc(/C=C/c2ccccc2)[n+](=O)c2c(=O)n(C)c(=O)[nH]c21
2,67.5%,CCn1nc(-c2ccc(Cl)cc2)nc2c(=O)n(C)c(=O)nc1-2
3,52%,Cn1c(=O)[nH]c2c(c1=O)[n+](=O)c(/C=C/c1ccccc1)nn2C
4,31.6%,O=P(O)(O)OP(=O)(O)O
5,70%,Cn1nc(/C=C/c2ccccc2)nc2c(=O)n(C)c(=O)nc1-2
6,99.4%,CCCCOC(OCCCC)(OCCCC)OCCCC
